In patent US20250375410A1, “COMPOUND FOR PREVENTING OR TREATING NONALCOHOLIC FATTY LIVER DISEASE AND COMPOSITION THEREOF” (SUNWAY BIOTECH CO., LTD., priority 2024, published 2025):
Marks after values point to notes of the source that are not given here.

Legend:
Type in all cases: in vivo, C57BL/6J mice
[1] = test system: nonalcoholic fatty liver mice induced by high-fat feed; experiment: Serum liver function indices AST and ALT in high-fat feed induced nonalcoholic fatty liver mice
Protocol: (§1) 1. Preparation of the Composition of the Present invention • (1) L008 and H008 groups: The composition is the red yeast rice of the present invention obtained by fermenting rice with the Monascus pilosus of the present invention as described in Embodiment 2. The daily dosage for adults in the L008 and H008 groups is 0.5 g/day and 2 g/day, containing 1.5 mg/day and 6 mg/day of monascinol (a compound having the structure of Formula (I)), respectively. • (2) Msol group: Monascinol (a compound having the structure of Formula (I)), with a daily dosage of 6 mg/day for adults.
(§2) The experiment used 7-week-old male C57BL/6J strain mice purchased from the National Laboratory Animal Center. The initial body weight was about 23 g, with 12 mice per group. They were housed at 60% relative humidity, room temperature 25±1° C., with a 12-hour light cycle (8:00-20:00). The experiment lasted for 22 weeks, during which food and water were provided ad libitum. Body weight, food intake, and water consumption were measured weekly.
(§3) The feeding dosage calculation was based on the experiment initial estimation method published by the U.S. Food and Drug Administration in 2005 (Estimating the maximum safe starting dose in initial clinical trials for therapeutics in adult healthy volunteers). Using a 60 kg adult as the standard, when conducting trials on higher experimental animals, the dosage conversion principle is to use 12.3 times the recommended daily intake per kilogram of human body weight (mg/kg bw/day) as the recommended daily intake per kilogram of mouse body weight. The calculation formula is as follows: […]
Embodiment 4 uses a high-fat feed to induce a nonalcoholic fatty liver animal model. The animal experiment lasted for 22 weeks. […]
A biochemical auto-analyzer (Model Beckman-700, purchased from Fullerton, CA, USA) was used for detection. The items detected were: TC (Total Cholesterol), TG (Triglyceride), AST (Aspartate Aminotransferase) and ALT (Alanine Aminotransferase) activities.

[2] = test system: gut microbiota of nonalcoholic fatty liver mice; experiment: Analysis of gut microbiota (full-length 16S sequencing) in nonalcoholic fatty liver mice; conditions: compared with the HFD group; L008, H008 and Msol groups
Protocol: (§4) Embodiment 4 uses a high-fat feed to induce a nonalcoholic fatty liver animal model. The animal experiment lasted for 22 weeks. Animal test feed was prepared according to the formula of Research Diets (New Brunswick, NJ, USA) for D12450B and D12492. The grouping is as follows: • i. ND group: Normal animal group. • ii. HFD group: Control group, nonalcoholic fatty liver mice induced by high-fat feed. • iii. L008 group: Nonalcoholic fatty liver mice induced by high-fat feed and gavaged daily with red yeast rice powder, equivalent to 0.5 g of the red yeast rice of the present invention consumed daily by a 60 kg adult, containing 1.5 mg monascinol (a compound having the structure of Formula (I)). • iv. […]
(1) Extraction of Genomic DNA and PCR Amplification and Purification Total genomic DNA was extracted from samples (QIAamp PowerFecal DNA, Qiagen). DNA concentration was determined using a Qubit 4.0 fluorometer (Thermo Scientific) and adjusted to 1 ng/μL. […] PCR reactions were performed using KAPA HiFi HotStart ReadyMix (Roche): 95° C., 3 minutes; 20-27 cycles (sample-dependent): 95° C., 30 seconds, 57° C., 30 seconds, 72° C., 60 seconds; 72° C. for 5 minutes, and final storage at 4° C. PCR products were monitored on 1% agarose gel. […]

[3] = test system: nonalcoholic fatty liver mice induced by high-fat feed; experiment: Liver weight and liver/body weight ratio in high-fat feed induced nonalcoholic fatty liver mice
Protocol: as §1, §2, §3
as §4, with “iv. H008 group: Nonalcoholic fatty liver mice induced by high-fat feed and gavaged daily with red yeast rice powder, equivalent to 2 g of the red yeast rice of the present invention consumed daily by a 60 kg adult, containing 6 mg monascinol (a compound having the structure of Formula (I)). • v.” for “iv.”

[4] = test system: nonalcoholic fatty liver mice induced by high-fat feed; experiment: Liver lipid extraction and measurement (TG, TC) in high-fat feed induced nonalcoholic fatty liver mice
Protocol: as §1, §2, §3
Embodiment 4 uses a high-fat feed to induce a nonalcoholic fatty liver animal model. The animal experiment lasted for 22 weeks. Animal test feed was prepared according to the formula of Research Diets (New Brunswick, NJ, USA) for D12450B and D12492. The grouping is as follows: • i. ND group: Normal animal group. • ii. HFD group: Control group, nonalcoholic fatty liver mice induced by high-fat feed. • iii. […]

[5] = test system: nonalcoholic fatty liver mice induced by high-fat feed; experiment: Liver histopathology (H&E staining) assessment in high-fat feed induced nonalcoholic fatty liver mice
Protocol: as §1, §2, §3
Embodiment 4 uses a high-fat feed to induce a nonalcoholic fatty liver animal model. The animal experiment lasted for 22 weeks. Animal test feed was prepared according to the formula of Research Diets (New Brunswick, NJ, USA) for D12450B and D12492. The grouping is as follows: • i. ND group: Normal animal group. • ii. HFD group: Control group, nonalcoholic fatty liver mice induced by high-fat feed. • iii. L008 group: Nonalcoholic fatty liver mice induced by high-fat feed and gavaged daily with red yeast rice powder, equivalent to 0.5 g of the red yeast rice of the present invention consumed daily by a 60 kg adult, containing 1.5 mg monascinol (a compound having the structure of Formula (I)). • iv. H008 group: Nonalcoholic fatty liver mice induced by high-fat feed and gavaged daily with red yeast rice powder, equivalent to 2 g of the red yeast rice of the present invention consumed daily by a 60 kg adult, containing 6 mg monascinol (a compound having the structure of Formula (I)). • v. Msol group: Nonalcoholic fatty liver mice induced by high-fat feed and gavaged daily with monascinol (a compound having the structure of Formula (I)) powder, equivalent to 6 mg of monascinol (a compound having the structure of Formula (I)) powder consumed daily by a 60 kg adult.
In the 22nd week of the experiment, food was withheld for 12-14 hours before blood collection. […] The obtained blood samples were centrifuged at 4° C., 3,000×g for 15 minutes. The upper layer of blood was aliquoted into eppendorf tubes and stored at −80° C. The liver was weighed, and the second largest lobe was preserved in 10% pathological formalin. The remaining liver was washed with 0.9% physiological saline, and along with the kidneys, placed in zipper bags and stored at −80° C.
The liver was fixed in 10% formalin, dehydrated, and embedded in paraffin to make tissue sections. […]

[6] = serum, Msol group: monascinol 0.0012 g/kg bw/day by gavage, high-fat diet, 22 weeks, mean ± SD, n = 8
[7] = Msol group: monascinol 0.0012 g/kg bw/day by gavage, high-fat diet, 22 weeks, mean ± SD, n = 8
[8] = lesion severity grade (0 to 4), Msol group: monascinol 0.0012 g/kg bw/day, high-fat diet, 22 weeks, mean ± SD, n = 8

Monascinol [Msol]
ALT Activity [1, 6]: 25.3 ± 3.4 ^a U/L
AST Activity [1, 6]: 60.6 ± 3.7 ^a U/L
Effect on serum AST and ALT activities, in words ([1]; versus HFD group, various doses (L008 and H008 groups) and Monascinol): significantly reduced AST and ALT activities
Abundance of Blautia and Intestinimonas in the intestine, in words (FIG. 9) [2]: increase the microbial populations of Blautia and Intestinimonas
Liver Weight [3, 7]: 1.01 ± 0.06 ^a g
Liver/Body Weight [3, 7]: 2.85 ± 0.24 ^a %
Effect on liver weight, in words ([3]; versus HFD group, p<0.05, various doses (L008 and H008 groups) and Msol): significantly reducing liver weight
Effect on liver/body weight ratio, in words ([3]; versus HFD group, various doses (L008 and H008 groups) and Msol): improving the liver/body weight ratio
Liver TC [4, 7]: 1.02 ± 0.32 ^ab mg/g
Liver TG [4, 7]: 7.25 ± 0.71 ^a mg/g
Effect on TC and TG in the liver, in words ([4]; versus HFD group, p<0.05): effectively reduced the accumulation of TC and TG in the liver
Fatty change with macro-vesicles, multifocal [5, 8]: 0.3 ± 0.7 ^a
Fatty change with micro-vesicles, multifocal [5, 8]: 0.1 ± 0.4 ^a
Fatty change, general [5, 8]: 0.3 ± 0.7 ^a
Inflammation, granulomatous, multifocal ([5]; lesion severity grade (0 to 4), Msol group: monascinol 0.0012 g/kg bw/day, high-fat diet, 22 weeks, n = 8): 0 ^a
Effect on accumulation of liver lipid droplets / fatty infiltration, in words (FIG. 7, Table 6) ([5]; versus HFD group, p<0.05): significantly improved the accumulation of liver lipid droplets and fatty infiltration
